Values quoted from earlier work in US9827227B2, “Controlled release pharmaceutical formulations of nitazoxanide” (Romark Laboratories L.C., priority 2009, dated 2017).

How the values were obtained:
DNA viruses = conditions: in vitro, in words
hepatitis C virus (HCV) = conditions: in vitro and in clinical trials, in words
[1] = after oral administration of nitazoxanide in humans

SMILES	activity against certain DNA viruses (DNA viruses)	activity against hepatitis C virus (HCV) (hepatitis C virus (HCV))	half-life in plasma [1]
CC(=O)Oc1ccccc1C(=O)Nc1ncc([N+](=O)[O-])s1 [Nitazoxanide, 2-(acetolyloxy)-N-(5-nitro-2-thiazolyl) benzamide]	active	activity against hepatitis C virus	–
O=C(Nc1ncc([N+](=O)[O-])s1)c1ccccc1O [tizoxanide]	active	activity against hepatitis C virus	approximately 1.5 hours
